Results on 34 molecules are retold here after patent US9663475B2, “2 amino-3,4-dihydrcquinazoline derivatives and the use thereof as cathepsin D inhibitors” (Merck Patent GmbH, priority 2013, dated 2017).

Non-standard residues stand in square brackets, D forms with d. Residues, ends and D or L forms follow the SMILES beside them. *: point of attachment. Sta = CC(C)C[C@H](N)[C@@H](O)CC(=O)O; Isovaleryl = CC(C)CC(=O)*

Chain of cathepsin D isolated from the human liver (P07339 65-161): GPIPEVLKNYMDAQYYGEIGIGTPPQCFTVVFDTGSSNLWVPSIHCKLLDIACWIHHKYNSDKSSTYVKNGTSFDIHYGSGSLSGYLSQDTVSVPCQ
Chain of cathepsin D isolated from the human liver (P07339 169-412): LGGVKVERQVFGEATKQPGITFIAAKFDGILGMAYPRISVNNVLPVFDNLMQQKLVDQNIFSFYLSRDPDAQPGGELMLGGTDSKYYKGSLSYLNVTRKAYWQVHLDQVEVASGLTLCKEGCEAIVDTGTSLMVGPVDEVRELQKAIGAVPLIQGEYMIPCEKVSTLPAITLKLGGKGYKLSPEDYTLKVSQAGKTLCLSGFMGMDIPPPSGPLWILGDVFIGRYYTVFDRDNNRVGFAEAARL

One data set deals with cathepsin D isolated from the human liver (Homo sapiens (Human), UniProt P07339). In words: In-vitro fluorescence assay for identification of cathepsin D inhibitors. It is filed as biochemical. The settings on record: human liver cathepsin D 1.4 nM, pH 5.5, substrate 5 μM; read-out: Cath D IC50. Here is the method:
In order to identify modulators of cathepsin D activity, a continuous enzymatic test was carried out with a synthetic peptide which carries a fluorescent group (MCA=(7-methoxycoumarin-4-yl)acetyl) which is quenched by energy transfer from a Dpn (2,4 dinitrophenyl) group on the same molecule, in Greiner 384-well nb microtitre plates. Cleavage of the peptidic substrate by cathepsin D causes an increase in the fluorescence intensity. In order to determine the efficacy of substances, the time-dependent increase in the fluorescence intensity in the presence of the substance was compared with the time-dependent increase in fluorescence in the absence of substances. The reference substance used was pepstatin A (Sigma-Aldrich). The substrate used was MCA-GKPILFFRLK(Dnp)d-R—NH2 (Enzo Life Sciences, Lörach). The enzyme employed was cathepsin D isolated from the human liver (Sigma-Aldrich) in a final concentration of 1.4 nM. The test was carried out in 100 mM sodium acetate buffer, 1.25% (v/v) of DMSO, 0.25% (w/v) of Chaps, pH 5.5. 2 μl of each substance solution with serially diluted substance concentration were added to in each case 4 μl of cathepsin D solution and incubated at room temperature for 10 min. The reaction was started by addition of 2 μl of substrate solution (final concentration 5 μM). After carrying out a starting-point fluorescence measurement (excitation wavelength 340 nm/emission wavelength 450 nm) using an Envision multilabel reader (Perkin Elmer), the reaction was incubated at room temperature for 60 min. The amount of peptide fragment cleaved off during the reaction time was subsequently measured by determination of the increase in the fluorescence intensity at 450 nm (excitation wavelength 340 nm).
The IC50 values of the compounds according to the invention can be obtained from Table 2 from Example 1.
Regarding `NNc1nc2cc(C(F)(F)F)ccc2c(=O)n1C1Cc2ccccc2C1` [Compound A28, 2-hydrazino-3-indan-2-yl-7-trifluoromethyl-3H-quinazolin-4-one], the IC50 was 24000 nM. Take `NC1=Nc2cc(C(=O)N3CCc4ccccc43)ccc2CN1C1Cc2ccccc2C1` [Compound A21, (2-amino-3-indan-2-yl-3,4-dihydroquinazolin-7-yl)-(2,3-dihydroindol-1-yl)methanone]: the IC50 was 220 nM.

Consider `NC1=Nc2cc(C(=O)N3CCOCC3)ccc2CN1C1Cc2ccccc2C1` [Compound A26, (2-amino-3-indan-2-yl-3,4-dihydroquinazolin-7-yl)morpholin-4-ylmethanone], for which the 50% inhibitory concentration (IC50) is 3000 nM. As to `COc1ccc2c(c1OC)CC(N1Cc3ccc(Cl)cc3N=C1N)C2` (stereo not shown) [Compound A11, 7-chloro-3-(4,5-dimethoxyindan-2-yl)-3,4-dihydroquinazolin-2-ylamine], the IC50 is 780 nM. Same read-out and setting: the same measure for `COc1cc2c(cc1OC)CC(N1Cc3ccc(Cl)cc3N=C1N)C2` [Compound A8, 7-chloro-3-(5,6-dimethoxyindan-2-yl)-3,4-dihydroquinazolin-2-ylamine]: 1100 nM; for `CO[C@@H]1c2ccccc2C[C@@H]1N1Cc2ccc(C(F)(F)F)cc2NC1=N` [Compound A31, 3-((1R,2S)-1-methoxyindan-2-yl)-7-trifluoromethyl-3,4-dihydro-1H-quinazolin-2-ylidenamine]: 2500 nM.

For `NC1=Nc2cc(C(F)(F)F)ccc2CN1C1CCc2ccccc2C1` (stereo not shown) [Compound A20, 3-(1,2,3,4-tetrahydronaphthalen-2-yl)-7-trifluoromethyl-3,4-dihydroquinazolin-2-ylamine], the IC50 was found to be 3800 nM. As for `NC1=Nc2cc(C(=O)N3CCOc4ccccc43)ccc2CN1C1Cc2ccccc2C1` [Compound A30, (2-amino-3-indan-2-yl-3,4-dihydroquinazolin-7-yl)-(2,3-dihydrobenzo[1,4]oxazin-4-yl)methanone], the IC50 was 240 nM. Turning to `NC1=Nc2ccccc2CN1C1Cc2ccccc2C1` [Compound A1, 3-indan-2-yl-3,4-dihydroquinazolin-2-ylamine], the IC50 worked out at 2700 nM. For the molecule `COc1ccc2c(c1)C[C@H](N1Cc3ccc(C(F)(F)F)cc3N=C1N)C2` (single isomer, unassigned) [Compound A19], the IC50 stood at 320 nM. Take `NC1=Nc2cccc(Cl)c2CN1C1Cc2ccccc2C1` [Compound A4, 5-chloro-3-indan-2-yl-3,4-di hydroquinazolin-2-ylamine]: the half-inhibitory concentration (IC50) is 8400 nM. For `COc1ccc2c(c1)CC(N1Cc3ccc(C(F)(F)F)cc3N=C1N)C2` (racemic) [Compound A16, 3-(5-methoxyindan-2-yl)-7-trifluoromethyl-3,4-dihydroquinazolin-2-ylamine], the IC50 is 170 nM. Regarding `COc1ccc2c(c1)C[C@@H](N1Cc3ccc(C(F)(F)F)cc3N=C1N)C2` (single isomer, unassigned) [Compound A18], the IC50 came to 270 nM.

Take `NC1=Nc2ccccc2CN1C1Cc2ccccc2C1` [Compound A2, 3-indan-2-yl-3,4-dihydroquinazolin-2-ylamine]: the IC50 worked out at 2300 nM.

As for `NC1=Nc2cc(Cl)ccc2CN1C1Cc2ccccc2C1` [Compound A3, 7-chloro-3-indan-2-yl-3,4-di hydroquinazolin-2-ylamine], the IC50 came to 960 nM. The same measure, in the same setting: the result for `CCc1ccc2c(c1)N=C(N)N(C1Cc3ccc(OC)cc3C1)C2` (stereo not shown) [Compound A17, 7-ethyl-3-(5-methoxyindan-2-yl)-3,4-dihydroquinazolin-2-ylamine] reads 270 nM; that for `COc1cc2c(cc1OC)CC(N1Cc3ccc(Cl)cc3N=C1N)C2` [Compound A9, 7-chloro-3-(5,6-dimethoxyindan-2-yl)-3,4-dihydroquinazolin-2-ylamine], 510 nM; that for `CCCc1ccc2c(c1)N=C(N)N(C1Cc3ccccc3C1)C2` [Compound A7, 3-indan-2-yl-7-propyl-3,4-dihydroquinazolin-2-ylamine], 140 nM. In the case of `NC1=Nc2cc(C(=O)N3CCOCC3)ccc2CN1C1Cc2ccccc2C1` [Compound A25, (2-amino-3-indan-2-yl-3,4-dihydroquinazolin-7-yl)morpholin-4-ylmethanone], the IC50 turned out to be 2500 nM. In the case of `NC1=Nc2cc(C(F)(F)F)ccc2CN1C1CCc2ccccc21` (stereo not shown) [Compound A13, 3-indan-1-yl-7-trifluoromethyl-3,4-dihydroquinazolin-2-ylamine], the IC50 was 2500 nM.

For `NC1=Nc2cc(Cl)ccc2CN1C1CCCc2ccccc21` (stereo not shown) [Compound A6, 7-chloro-3-(1,2,3,4-tetrahydronaphthalen-1-yl)-3,4-dihydroquinazolin-2-ylamine], the IC50 came out at 1400 nM. As for `CCN(CC)C(=O)c1ccc2c(c1)N=C(N)N(C1Cc3ccccc3C1)C2` [Compound A24, N,N-diethyl-2-amino-3-indan-2-yl-3,4-dihydroquinazoline-7-carboxamide], the IC50 was determined as 4200 nM.

Take `COc1ccc2c(c1)CC(N1Cc3ccc(Cl)cc3N=C1N)C2` (stereo not shown) [Compound A14, 7-chloro-3-(5-methoxyindan-2-yl)-3,4-dihydroquinazolin-2-ylamine]: the IC50 amounted to 620 nM. `Nc1nc2cc(C(F)(F)F)ccc2c(=O)n1C1Cc2ccccc2C1` [Compound A27, 2-amino-3-indan-2-yl-7-trifluoromethyl-3H-quinazolin-4-one]: the IC50 amounted to 3300 nM. Still for that read-out and setting: the result for `CCN(CC)C(=O)c1ccc2c(c1)N=C(N)N(C1Cc3ccccc3C1)C2` [Compound A23, N,N-diethyl-2-amino-3-indan-2-yl-3,4-dihydroquinazoline-7-carboxamide] reads 2900 nM; that for `NC1=Nc2cc(C(F)(F)F)ccc2CN1C1c2ccccc2-c2ccccc21` [Compound A15, 3-(9H-fluoren-9-yl)-7-trifluoromethyl-3,4-dihydroquinazolin-2-ylamine], 1200 nM; that for `COc1cccc2c1CC(N1Cc3ccc(Cl)cc3N=C1N)C2` (stereo not shown) [Compound A12, 7-chloro-3-(4-methoxyindan-2-yl)-3,4-dihydroquinazolin-2-ylamine], 810 nM. For `NC1=Nc2cc(-c3ccccc3)ccc2CN1C1Cc2ccccc2C1` [Compound A5, 3-indan-2-yl-7-phenyl-3,4-dihydroquinazolin-2-ylamine], the IC50 came to 2200 nM. On to `COc1ccc2c(c1)CN(C(=O)c1ccc3c(c1)N=C(N)N(C1Cc4ccccc4C1)C3)C2` [Compound A22, (2-amino-3-indan-2-yl-3,4-dihydroquinazolin-7-yl)-(5-methoxy-1,3-dihydroisoindol-2-yl)methanone], for which the IC50 was found to be 180 nM. As to `NC1=Nc2cc(C(=O)N3CCCC3Cc3ccccc3)ccc2CN1C1Cc2ccccc2C1` (stereo not shown) [Compound A29, (2-amino-3-indan-2-yl-3,4-dihydroquinazolin-7-yl)-(2-benzylpyrrolidin-1-yl)methanone], the concentration for half-maximal inhibition (IC50) turned out to be 310 nM.

`NC1=Nc2cc(C(F)(F)F)ccc2CN1C1Cc2ccccc2C1` [Compound A10, 3-indan-2-yl-7-trifluoromethyl-3,4-dihydroquinazolin-2-ylamine]: the IC50 stood at 300 nM.

System in another data set: not listed separately
Put plainly: Stability in plasma (h/r/m) or at pH 1.2 or pH 7.4. In kind it is in vitro ADME. The following applies: recovery after 4 h. As to the method:
Stable: Recovery 75% after 4 h.
As for `NC1=Nc2ccccc2CN1C1Cc2ccccc2C1` [Compound A1, 3-indan-2-yl-3,4-dihydroquinazolin-2-ylamine], the “Stability in plasma (h/r/m) or at pH 1.2 or pH 7.4” value was “stable (Stable: Recovery 75% after 4 h.)”. Still for that read-out and setting: the result for `COc1ccc2c(c1)CC(N1Cc3ccc(C(F)(F)F)cc3N=C1N)C2` (racemic) [Compound A16, 3-(5-methoxyindan-2-yl)-7-trifluoromethyl-3,4-dihydroquinazolin-2-ylamine] reads “stab;e”; that for `CCc1ccc2c(c1)N=C(N)N(C1Cc3ccc(OC)cc3C1)C2` (stereo not shown) [Compound A17, 7-ethyl-3-(5-methoxyindan-2-yl)-3,4-dihydroquinazolin-2-ylamine], “stable (Stable: Recovery 75% after 4 h.)”; that for `CCCc1ccc2c(c1)N=C(N)N(C1Cc3ccccc3C1)C2` [Compound A7, 3-indan-2-yl-7-propyl-3,4-dihydroquinazolin-2-ylamine], “stable (Stable: Recovery 75% after 4 h.)”. Same read-out and setting: the same measure for `COc1ccc2c(c1)CC(N1Cc3ccc(Cl)cc3N=C1N)C2` (stereo not shown) [Compound A14, 7-chloro-3-(5-methoxyindan-2-yl)-3,4-dihydroquinazolin-2-ylamine]: “stable (Stable: Recovery 75% after 4 h.)”; for `NC1=Nc2cc(C(F)(F)F)ccc2CN1C1Cc2ccccc2C1` [Compound A10, 3-indan-2-yl-7-trifluoromethyl-3,4-dihydroquinazolin-2-ylamine]: “stable (Stable: Recovery 75% after 4 h.)”.

The test system of the next data set is rat knee joint. Put plainly: Anti-hyperalgesic effect in animals: carrageenan-induced knee joint inflammation, swelling and Hargreaves test. It is filed as in vivo. The following applies: intra-articular, 30 minutes before CAR, TAC 10 μg/joint.
Experimental: In order to induce an inflammation reaction, a carrageenan solution (CAR, 1%, 50 μl) was injected intra-articularly on one side into a rat knee joint. The uninjected side was used for control purposes. Six animals per group were used. The threshold was determined by means of a micrometer screw (medial-lateral on the knee joint), and the thermal hyperalgesia was determined by means of a directed infrared light source by the Hargreaves method (Hargreaves et al., 1988) on the sole of the foot. […] Experimental description of thermal hyperalgesia (Hargreaves test): the experimental animal is placed in a plastic chamber on a quartz sheet. Before testing, the experimental animal is firstly given about 5-15 minutes time to familiarise itself with the environment. As soon as the experimental animal no longer moves so frequently after the familiarisation phase (end of the exploration phase), the infrared light source, whose focus is in the plane of the glass bottom, is positioned directly beneath the rear paw to be stimulated. […] Light reflected by the paw is recorded as long as the experimental animal sits still. Withdrawal of the paw interrupts this reflection, after which the infrared light source is switched off and the time from switching on to switching off is recorded. […]
`C[C@]12C=CC(=O)C=C1CC[C@H]1[C@@H]3C[C@@H](O)[C@](O)(C(=O)CO)[C@@]3(C)C[C@H](O)[C@@]12F` [TAC, Triamcinolone]: the “reduction of CAR-induced swelling” value is recorded as “capable of reducing the CAR-induced swelling”.

A further data set has as its system cartilage explant cultures.
Test: not given
The following applies: pH 5.5, explant cultures (mouse, cow or human); cited from earlier work.
As to `CC(C)c1nc(CN(C)C(=O)N[C@H](C(=O)N[C@@H](Cc2ccccc2)C[C@H](O)[C@H](Cc2ccccc2)NC(=O)OCc2cncs2)C(C)C)cs1` [ritonavir], the “inhibition of autodigestion of the cartilage” value is “inhibited virtually completely”.

In the case of `CC(C)CC(=O)N[C@H](C(=O)N[C@H](C(=O)N[C@@H](CC(C)C)[C@@H](O)CC(=O)N[C@@H](C)C(=O)N[C@@H](CC(C)C)[C@@H](O)CC(=O)O)C(C)C)C(C)C` [pepstatin] (Isovaleryl-VV[Sta]A[Sta]-OH), the “inhibition of autodigestion of the cartilage” value was “inhibited virtually completely”.
